Measurements from patent US20040204487A1, “Novel medicinal product” (priority 2002, published 2004).
Entries after “also recorded” stand apart in the source; their conditions may differ. Each block holds one compound with its values, some of them ahead of it.

Tests used:
[1] = system: BFC-115 pre-adipocyte cells; assay: Triacylglyceride accumulation in differentiating BFC-115 pre-adipocytes; type: cell-based, murine; conditions: 7 days; for Amount of TAG in μg/mg of protein: control 0.45; for inhibition of the differentiation of the pre-adipocytes: 10 μM
Experimental: The pre-adipocyte lines 3T3-F442A (commercial line) and BFC 115 (from Claude Forest INSERM, St. Pères Paris V) are cultured until confluency in Dulbecco's modified Eagle medium (DMEM) (Gibco) in the presence of 5% of newborn calf serum and 5% of fetal calf serum (Gibco). From confluency, the cells are cultured in a differentiating medium (DMEM with 10% of fetal calf serum and 20 nM of insulin) in the presence or absence of the metabolites to be tested. The medium is renewed every two or three days. The differentiation of the cells is evaluated either by morphological criteria (very rounded cells having accumulated large lipid vacuoles) or by measuring the average amount of triglycerides per cell (ratio of the amount of triglyceride per dish to the amount of protein per dish). Under standard culture conditions, in 8 days, 90% of the pre-adipocytes have differentiated to adipocytes. […] The BFC-115 pre-adipocyte cells were treated from confluency with 12(R)-HETE (10 μM), 12(S)-HETE (10 μM), 11,12-EET (10 μM) and with arachidonic acid AA (100 μM). The cell differentiation was evaluated after 7 days by measuring the amount of triacylglycerides accumulated per mg of protein.

3T3-F442A cells [2] = assay: Direct morphological examination of differentiation of fibroblasts to adipocytes; type: cell-based, murine
Experimental: The differentiation of the cells is evaluated either by morphological criteria (very rounded cells having accumulated large lipid vacuoles) or by measuring the average amount of triglycerides per cell (ratio of the amount of triglyceride per dish to the amount of protein per dish). Under standard culture conditions, in 8 days, 90% of the pre-adipocytes have differentiated to adipocytes. To show by direct morphological examination the differentiation of the fibroblasts to adipocytes in the presence or absence of the metabolites 12-HETE and/or 11,12-EET, the following procedure was carried out. The 3T3-F442A cells are treated, from confluency, with these metabolites. The treatment was renewed every 2 or 3 days throughout the entire differentiation process. The level of differentiation of the cells was evaluated by observation under a photon microscope with a 200 times magnification (see the photos shown in figures FIG. 1A, FIG. 1A1, FIG. 1B and FIG. 1B1).

3T3-F442A cells [3] = assay: Triacylglyceride accumulation in differentiating 3T3-F442A pre-adipocytes; type: cell-based, murine; conditions: for Triacylglycerides (μg/mg protein): 10 μM from confluency, control (no treatment) 0.16; for Triacylglycerides (μg/mg protein) / inhibition of cell differentiation (in words) / concentration of TAGs in the adipocytes, % relative to the control: 7 days; for inhibition of cell differentiation (in words): 10 μM; for concentration of TAGs in the adipocytes, % relative to the control: control 100% (FIG. 2)
Experimental: The pre-adipocyte lines 3T3-F442A (commercial line) and BFC 115 (from Claude Forest INSERM, St. Pères Paris V) are cultured until confluency in Dulbecco's modified Eagle medium (DMEM) (Gibco) in the presence of 5% of newborn calf serum and 5% of fetal calf serum (Gibco).
From confluency, the cells are cultured in a differentiating medium (DMEM with 10% of fetal calf serum and 20 nM of insulin) in the presence or absence of the metabolites to be tested.
The medium is renewed every two or three days.
The differentiation of the cells is evaluated either by morphological criteria (very rounded cells having accumulated large lipid vacuoles) or by measuring the average amount of triglycerides per cell (ratio of the amount of triglyceride per dish to the amount of protein per dish). Under standard culture conditions, in 8 days, 90% of the pre-adipocytes have differentiated to adipocytes.
The cells are washed with PBS phosphate buffer (Sigma), recovered from the bottom of the Petri dish by scraping with a spatula, fragmented by ultrasound (2 seconds) and then centrifuged at 10000 g for 20 minutes.
The centrifugation supernatant is removed for triacylglyceride (TAG) analysis.
To determine the average amount of triglycerides per cell at the end of the abovementioned experiments, an automated enzymatic colorimetric test (Roche method) which is based on the studies of Wahlefeld (Wahlefeld and Bergmeyer (eds). Methods of Enzymatic Analysis. 2 second edition. New York Academic Press Inc. 1974: 1831) was used as assaying method.
The 3T3-F442A pre-adipocyte cells were treated from confluency with 12(R)-HETE (10 μM), 12(S)-HETE (10 μM), 11,12-EET (10 μM) and with Δ 15-deoxy prostaglandin J2 (10 μM, Δ 15-deoxyPGJ2) in the presence or absence of 10 μM of 12(R)-HETE. The cell differentiation was evaluated after 7 days by measuring, as indicated above, the amount of triacylglycerides accumulated per mg of protein.
To do this, 3T3-F442A fibroblasts, or pre-adipocyte cells, were treated from confluency with various concentrations of 12(R)-HETE. The cell differentiation was evaluated after 7 days by measuring the amount of triacylglycerides (TAGs) accumulated per mg of protein (prot).

[4] = system: cells from human adipose tissue; assay: Triglyceride accumulation in cells from human adipose tissue; type: cell-based; conditions: 10 μM, pro-differentiating medium, three experiments
Text: In addition, cells originating from human fat tissues subsequent to surgical interventions requiring their removal were used. The removed tissues are collected on a bed of ice and immediately treated in the laboratory. The cell culture consists of a mixture of pre-adipocyte cells and adipocyte cells already differentiated.

[5] = system: pre-adipocyte fibroblasts; conditions: cited from earlier work
[6] = Cellular toxicity markers after 8 days of treatment; type: cell-based; conditions: 30 μM
Experimental: The possible toxicity of the metabolites selected in accordance with the invention was also studied.
For this purpose, several cellular toxicity markers were measured after 8 days of treatment, namely
the LDH (lactate dehydrogenase) activity in the culture medium, a control for membrane permeabilization,
fragmentation of the nucleus by “Hoechst” staining, which is a marker for apoptosis and which is described in Leukemia, 15, 1572-81. Plenchette, S., Moutet M., Benguella M., N'Gondara J. P., Guigner F., Coffe C., Corcos L., Bettaieb A. and Solary E. (2001).

[7] = system: differentiated 3T3-F442A cells; assay: Residual level of metabolite in culture medium of differentiated cells (LC-MS); type: in vitro ADME, murine; conditions: 10 μM
Experimental: It was also determined that the residual level of 12(R)-HETE, present at a concentration of 10 μM in the culture medium of the differentiated 3T3-F442A cells, is respectively 85% and 2.3% after 6 h and 18 h of incubation.
The residual amounts of 12(R)-HETE were analyzed by LC-MS.

Compound: CCCCC/C=C\C/C=C\C/C=C\C/C=C\CCCC(=O)O [AA, arachidonic acid, reference compound]
Amount of TAG in μg/mg of protein ([1]; 100 μM from confluency): =0.55 μg/mg of protein
effect on differentiation (in words) ([1]; 100 μM): clearly promotes the differentiation
cell morphology under photon microscope (3T3-F442A cells [2]; 100 μM from confluency (FIG. 1B)): increases the amount of cells differentiated into adipocytes

Compound: CCCCC/C=C\CC1OC1C/C=C\C/C=C\CCCC(=O)O (stereo not drawn) [11,12-EET, 11,12-epoxyeicosatrienoic acid]
Triacylglycerides (μg/mg protein) (3T3-F442A cells [3]): 0.08 μg/mg protein
inhibition of cell differentiation (in words) (3T3-F442A cells [3]): greatly inhibit the cell differentiation
inhibition of the accumulation of triglycerides [4]: 50%
Amount of TAG in μg/mg of protein ([1]; 10 μM from confluency): =0.22 μg/mg of protein
inhibition of the differentiation of the pre-adipocytes [1]: approximately 40%

Compound: CCCCC/C=C/C=C1/C(=O)C=C[C@@H]1C/C=C\CCCC(=O)O [15-deoxyPGJ2, 15-deoxy-Δ^12,14-prostaglandin J2, reference compound]
Triacylglycerides (μg/mg protein) (3T3-F442A cells [3]): 0.52 μg/mg protein
concentrations at which differentiation is accelerated [5]: 10^−5 to 10^−6 M

penetration into the cells (conclusion from residual level) [7]: clearly penetrates into the cells
residual level in the culture medium ([7]; after 6 h of incubation): 85%
residual level in the culture medium ([7]; after 18 h of incubation): 2.3%
Compound: CCCCC/C=C\C[C@@H](O)/C=C/C=C\C/C=C\CCCC(=O)O [12(R)-HETE, 12-hydroxyeicosatetraenoic acid]
concentration of TAGs in the adipocytes, % relative to the control (3T3-F442A cells [3]; 5 μM): approximately 85%
inhibition of the differentiation induced by Δ 15-deoxyprostaglandin J2 (3T3-F442A cells [3]; 10 μM 12(R)-HETE with 10 μM 15-deoxyPGJ2, 7 days): approximately 40%
Triacylglycerides (μg/mg protein) (3T3-F442A cells [3]): 0.04 μg/mg protein
inhibition of cell differentiation (in words) (3T3-F442A cells [3]): greatly inhibit the cell differentiation; also recorded: greater than that of 12(S)-HETE
concentration of TAGs in the adipocytes, % relative to the control (3T3-F442A cells [3]; 30 μM): approximately 25%
cellular toxicity markers (number of cells, cell morphology, LDH activity in medium, fragmentation of the nucleus by Hoechst staining) [6]: None of these markers responds positively
inhibition of the accumulation of triglycerides [4]: 50%
Amount of TAG in μg/mg of protein ([1]; 10 μM from confluency): =0.17 μg/mg of protein
inhibition of the differentiation of the pre-adipocytes [1]: approximately 40%
cell morphology under photon microscope (3T3-F442A cells [2]; 10 μM, 7 days, with or without 100 μM arachidonic acid (FIG. 1A1, 1B1)): spindle-shaped with very few lipid globules

Compound: CCCCC/C=C\C[C@@H](O)/C=C/C=C\C/C=C\CCCC(=O)O [12(S)-HETE, 12-hydroxyeicosatetraenoic acid]
Triacylglycerides (μg/mg protein) (3T3-F442A cells [3]): 0.07 μg/mg protein
inhibition of cell differentiation (in words) (3T3-F442A cells [3]): greatly inhibit the cell differentiation
Amount of TAG in μg/mg of protein ([1]; 10 μM from confluency): =0.28 μg/mg of protein
inhibition of the differentiation of the pre-adipocytes [1]: approximately 40%
